From ChEMBL document CHEMBL1201862, “PubChem BioAssay data set” (2004)
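Exposure lasted 48 hours, with cells grown in 96-well plates and compounds tested at five concentrations. GI50: concentration for 50% inhibition of growth.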 Calls of active or inactive are those of the source. No stated cut-off is given here; in the data, active = GI50 up to about 1.1 µM and inactive = higher.

Assays:
Assay in all cases: DTP human tumour cell line panel, 48 h
[1] = test system: HT-29
[2] = test system: HCT-15
[3] = test system: OVCAR-5
[4] = test system: NCI-H522
[5] = test system: IGROV-1
[6] = test system: ACHN
[7] = test system: HOP-62
[8] = test system: MDA-MB-435
[9] = test system: SF-268
[10] = test system: OVCAR-3
[11] = test system: SK-MEL-2
[12] = test system: SN12C
[13] = test system: HCT-116
[14] = test system: A498
[15] = test system: SNB-19
[16] = test system: SK-MEL-28
[17] = test system: NCI/ADR-RES
[18] = test system: M14
[19] = test system: LOX IMVI
[20] = test system: OVCAR-8

`O=C1CCC(NC(=O)c2ccccc2)C(=O)N1` (stereo not given) was tested, and the GI50 [1] was > 100 µM (inactive), the GI50 [2] was greater than 100 µM and the GI50 [3] was > 100 µM (inactive). The GI50 [4] was > 100 µM (inactive), the GI50 [5] was > 100 µM (inactive) and the GI50 [6] was > 100 µM (inactive). The GI50 [7] was > 100 µM (inactive), the GI50 [8] was > 100 µM (inactive) and the GI50 [9] was > 100 µM (inactive). For the same compound, the GI50 [10] was > 100 µM (inactive), the GI50 [11] was > 100 µM (inactive) and the GI50 [12] was > 100 µM (inactive). The GI50 [13] was > 100 µM (inactive), the GI50 [14] was > 100 µM (inactive) and the GI50 [15] was > 100 µM (inactive). The GI50 [16] was > 100 µM (inactive), the GI50 [17] was > 100 µM (inactive) and the GI50 [18] was > 100 µM (inactive). The GI50 [19] was > 100 µM (inactive) and the GI50 [20] was > 100 µM (inactive).

With `COC(O)C(=O)c1c2c(cc3c1CCC3)CCCC2` (stereo not given) the GI50 [1] was 2.69 µM (inactive), the GI50 [2] was 4.25 µM and the GI50 [3] was 18.1 µM (inactive). The GI50 [4] was 3.84 µM (inactive), the GI50 [5] was 4.12 µM (inactive) and the GI50 [6] was 8.38 µM (inactive). For the same compound, the GI50 [7] was 17.1 µM (inactive), the GI50 [8] was 17.4 µM (inactive) and the GI50 [9] was 15.2 µM (inactive). For the same compound, the GI50 [10] was 4.65 µM (inactive), the GI50 [11] was 11.4 µM (inactive) and the GI50 [12] was 4.66 µM (inactive). The GI50 [13] was 2.02 µM (inactive), the GI50 [14] was 13.5 µM (inactive) and the GI50 [15] was 17.2 µM (inactive). The GI50 [16] was 9.48 µM (inactive), the GI50 [17] was 14.7 µM (inactive) and the GI50 [18] was 10.2 µM (inactive). For the same compound, the GI50 [19] was 1.99 µM (inactive) and the GI50 [20] was 7.87 µM (inactive).

In the case of `NC12Oc3cc(O)cc(O)c3C1(c1ccc(Cl)cc1)c1c(O)cc(O)cc1O2` (stereo not given), the GI50 [1] is reported as 35.4 µM (inactive), the GI50 [2] is reported as greater than 100 µM and the GI50 [3] is reported as > 100 µM (inactive). For the same compound, the GI50 [4] was 24.7 µM (inactive), the GI50 [5] was 41.7 µM (inactive) and the GI50 [6] was > 100 µM (inactive). The GI50 [7] was 68.9 µM (inactive), the GI50 [8] was 46.8 µM (inactive) and the GI50 [9] was 69 µM (inactive). For the same compound, the GI50 [10] was 47.6 µM (inactive), the GI50 [11] was 36.6 µM (inactive) and the GI50 [12] was 21.4 µM (inactive). The GI50 [13] was 46 µM (inactive), the GI50 [14] was > 100 µM (inactive) and the GI50 [15] was 73.1 µM (inactive). The GI50 [16] was 61.2 µM (inactive), the GI50 [17] was > 100 µM (inactive) and the GI50 [18] was > 100 µM (inactive). For the same compound, the GI50 [19] was 57.4 µM (inactive) and the GI50 [20] was > 100 µM (inactive).

`COc1ccc2nc3c([N+](=O)[O-])ccc4c3c(c2c1)N=CN4CCCN(C)C` was tested, and the GI50 [1] was 0.57 µM (active), the GI50 [2] was 0.53 µM and the GI50 [3] was 10.2 µM (inactive). The GI50 [4] was 1.34 µM (inactive), the GI50 [5] was 0.855 µM (active) and the GI50 [6] was 0.743 µM (active). For the same compound, the GI50 [7] was 1.2 µM (inactive), the GI50 [8] was 2.54 µM (inactive) and the GI50 [9] was 2.77 µM (inactive). The GI50 [10] was 2.91 µM (inactive), the GI50 [11] was 7.71 µM (inactive) and the GI50 [12] was 1.97 µM (inactive). The GI50 [13] was 0.419 µM (active), the GI50 [14] was 5.6 µM (inactive) and the GI50 [15] was 4.74 µM (inactive). The GI50 [16] was 10 µM (inactive), the GI50 [17] was 2.32 µM (inactive) and the GI50 [18] was 4.73 µM (inactive). The GI50 [19] was 2.01 µM (inactive) and the GI50 [20] was 1.3 µM (inactive).

With `Cc1ccc(CN2CCN(Cc3ccc(C)o3)C(C)C2)o1` (stereo not given) the GI50 [1] was > 100 µM (inactive), the GI50 [2] was greater than 100 µM and the GI50 [3] was > 100 µM (inactive). The GI50 [4] was > 100 µM (inactive), the GI50 [5] was > 100 µM (inactive) and the GI50 [6] was > 100 µM (inactive). The GI50 [7] was > 100 µM (inactive), the GI50 [8] was > 100 µM (inactive) and the GI50 [9] was > 100 µM (inactive). For the same compound, the GI50 [10] was > 100 µM (inactive), the GI50 [11] was > 100 µM (inactive) and the GI50 [12] was > 100 µM (inactive). For the same compound, the GI50 [13] was > 100 µM (inactive), the GI50 [14] was > 100 µM (inactive) and the GI50 [15] was > 100 µM (inactive). The GI50 [16] was > 100 µM (inactive), the GI50 [17] was > 100 µM (inactive) and the GI50 [18] was > 100 µM (inactive). For the same compound, the GI50 [19] was > 100 µM (inactive) and the GI50 [20] was > 100 µM (inactive).

With `O=c1[nH]c(=S)[nH]n1C(=S)n1[nH]c(=S)[nH]c1=O` the GI50 [1] was > 100 µM (inactive), the GI50 [2] was greater than 100 µM and the GI50 [3] was > 100 µM (inactive). The GI50 [4] was > 100 µM (inactive), the GI50 [5] was > 100 µM (inactive) and the GI50 [6] was > 100 µM (inactive). For the same compound, the GI50 [7] was > 100 µM (inactive), the GI50 [8] was > 100 µM (inactive) and the GI50 [9] was > 100 µM (inactive). For the same compound, the GI50 [10] was 41.7 µM (inactive), the GI50 [11] was > 100 µM (inactive) and the GI50 [12] was > 100 µM (inactive). For the same compound, the GI50 [13] was > 100 µM (inactive), the GI50 [14] was > 100 µM (inactive) and the GI50 [15] was > 100 µM (inactive). For the same compound, the GI50 [16] was > 100 µM (inactive), the GI50 [17] was > 100 µM (inactive) and the GI50 [18] was > 100 µM (inactive). For the same compound, the GI50 [19] was 60.4 µM (inactive) and the GI50 [20] was > 100 µM (inactive).

`C=C1CC(C)(COc2ccc3ccc(=O)oc3c2)OC1=O` (stereo not given) was tested, and the GI50 [1] was 1.57 µM (inactive), the GI50 [2] was 2.61 µM and the GI50 [3] was 6.73 µM (inactive). The GI50 [4] was 0.733 µM (active), the GI50 [5] was 2.93 µM (inactive) and the GI50 [6] was 3.46 µM (inactive). For the same compound, the GI50 [7] was 16 µM (inactive), the GI50 [8] was 2.12 µM (inactive) and the GI50 [9] was 10.9 µM (inactive). For the same compound, the GI50 [10] was 3.72 µM (inactive), the GI50 [11] was 1.31 µM (inactive) and the GI50 [12] was 8.22 µM (inactive). For the same compound, the GI50 [13] was 1.14 µM (inactive), the GI50 [14] was 7.45 µM (inactive) and the GI50 [15] was 18.7 µM (inactive). For the same compound, the GI50 [16] was 2.94 µM (inactive), the GI50 [17] was 1.04 µM (active) and the GI50 [18] was 1.14 µM (inactive). For the same compound, the GI50 [19] was 1.35 µM (inactive) and the GI50 [20] was 4.72 µM (inactive).

For `O=S(=O)(Cc1nc2ccccc2s1)c1nc2ccccc2s1`, the GI50 [1] was 18.2 µM (inactive), the GI50 [2] was 16.3 µM and the GI50 [3] was 20 µM (inactive). The GI50 [4] was 15.5 µM (inactive), the GI50 [5] was 18.7 µM (inactive) and the GI50 [6] was 16.3 µM (inactive). The GI50 [7] was 49.3 µM (inactive), the GI50 [8] was 15.2 µM (inactive) and the GI50 [9] was 15.6 µM (inactive). For the same compound, the GI50 [10] was 14.4 µM (inactive), the GI50 [11] was 17.4 µM (inactive) and the GI50 [12] was 16.8 µM (inactive). The GI50 [13] was 13.9 µM (inactive), the GI50 [14] was 19.2 µM (inactive) and the GI50 [15] was 21.5 µM (inactive). The GI50 [16] was 15.6 µM (inactive), the GI50 [17] was 43.2 µM (inactive) and the GI50 [18] was 13 µM (inactive). The GI50 [19] was 10 µM (inactive) and the GI50 [20] was 19.4 µM (inactive).

`CC(=O)c1ccc(NCN2C(=O)c3ccccc3C2=O)cc1` was tested, and the GI50 [1] was > 100 µM (inactive), the GI50 [2] was greater than 100 µM and the GI50 [3] was > 100 µM (inactive). For the same compound, the GI50 [4] was 97.5 µM (inactive), the GI50 [5] was > 100 µM (inactive) and the GI50 [6] was > 100 µM (inactive). For the same compound, the GI50 [7] was > 100 µM (inactive), the GI50 [8] was > 100 µM (inactive) and the GI50 [9] was > 100 µM (inactive). The GI50 [10] was > 100 µM (inactive), the GI50 [11] was > 100 µM (inactive) and the GI50 [12] was > 100 µM (inactive). For the same compound, the GI50 [13] was > 100 µM (inactive), the GI50 [14] was > 100 µM (inactive) and the GI50 [15] was > 100 µM (inactive). For the same compound, the GI50 [16] was > 100 µM (inactive), the GI50 [17] was > 100 µM (inactive) and the GI50 [18] was > 100 µM (inactive). For the same compound, the GI50 [19] was > 100 µM (inactive) and the GI50 [20] was > 100 µM (inactive).

In the case of `COc1ccc2ccccc2c1/C=C/C(=O)c1ccccc1`, the GI50 [1] is reported as 3.43 µM (inactive), the GI50 [2] is reported as 2.9 µM and the GI50 [3] is reported as 7.57 µM (inactive). For the same compound, the GI50 [4] was 2.46 µM (inactive), the GI50 [5] was 4.03 µM (inactive) and the GI50 [6] was 3.33 µM (inactive). For the same compound, the GI50 [7] was 2.68 µM (inactive), the GI50 [8] was 2.53 µM (inactive) and the GI50 [9] was 2.7 µM (inactive). The GI50 [10] was 2.32 µM (inactive), the GI50 [11] was 1.56 µM (inactive) and the GI50 [12] was 2.88 µM (inactive). The GI50 [13] was 2.99 µM (inactive), the GI50 [14] was 3.56 µM (inactive) and the GI50 [15] was 3.24 µM (inactive). The GI50 [16] was 5.96 µM (inactive), the GI50 [17] was 3.01 µM (inactive) and the GI50 [18] was 3.13 µM (inactive). The GI50 [19] was 2.77 µM (inactive) and the GI50 [20] was 2.33 µM (inactive).
